Results from patent publication US8840899B2, “Use of mTOR inhibitors to enhance T cell immune responses” (priority 2008, dated 2014).
Entries after “also recorded” stand apart in the source; their conditions may differ. Read-outs that look alike come from different tables or passages of the source.

Tests used:
[1] = mice
[2] = system: virus-specific CD8^+ T cells; parameters: species or system mice; details: mouse, in vivo
[3] = system: GP33 epitope-specific memory CD8^+ T cells (P14 cells); assay: Rapamycin during T cell maintenance phase, adoptively transferred CFSE-labeled memory P14 cells; type: in vivo, mice
[4] = system: DbGP33 tetramer-positive P14 cells; type: in vivo, mice
[5] = system: antigen-specific CD8^+ T cells; parameters: species or system mice; details: mouse, in vivo
[6] = system: virus-specific CD8^+ T cells; parameters: species or system mice; details: mouse, in vivo; remark: listed apart in the source
[7] = system: vaccinia virus (VV) that expresses the GP33 epitope (VVgp33); parameters: species or system mice; details: mouse, in vivo
P14 cells = type: in vivo, mice
[8] = system: virus-specific CD8^+ T cells; parameters: species or system mice; details: mouse, in vivo; remark: listed apart in the source
LCMV = system: LCMV; parameters: species or system mice; details: mouse, in vivo
[9] = system: virus-specific CD8^+ T cells; parameters: species or system mice; details: mouse, in vivo; remark: listed apart in the source
[10] = system: GP33 epitope-specific CD8^+ T cells; type: in vivo, mice
[11] = system: virus-specific memory CD4^+ T cells; parameters: species or system mice; details: mouse, in vivo
P14 memory T cells = type: in vivo; details: VVGP33 challenge, vs memory cells of untreated mice
[12] = system: DbGP33 tetramer-positive CD8^+ T cells; assay: rAd5-LCMV-GP vaccination with low dose rapamycin; type: in vivo, mice
Description: Mice were vaccinated with rAd5-LCMV-GP (1×10^10 viral particles) by intramuscular injection on Day 0 and either left untreated or treated with rapamycin at a dose of 0.075 mg/kg from Day −1 to Day 34 (FIG. 19A). The number of DbGP33 tetramer-positive CD8^+ T cells in the spleen of treated and untreated mice was determined by FACS on Day 35 post-vaccination. […] The phenotype of virus-specific CD8^+ T cells was also evaluated by FACS (FIG. 19C).

[13] = system: FKBP12 RNAi retrovirus transduced P14 cells; parameters: species or system mice; details: mouse, in vivo
[14] = system: vaccinia virus-specific CD8^+ T cells; parameters: species or system Rhesus macaques (Macaca mulatta); details: rhesus monkey, in vivo
[15] = system: LCMV-specific CD8^+ T cells (P14 cells); parameters: species or system mice; details: mouse, in vivo
P14 memory cells = type: in vivo, mice
[16] = rhesus macaques, approximately 10-50 μg/kg/day intramuscularly
[17] = system: CD62L^low effector CD8^+ T cells (P14 cells); type: in vivo, mice
FKBP12 = type: cell-based, mice; details: GFP^+ P14 cells, Day 7 or 8 post-infection
raptor = type: cell-based, mice; details: GFP^+ P14 cells, Day 7 or 8 post-infection
[18] = system: LCMV-specific P14 transgenic CD8^+ T cells; parameters: species or system mice; details: mouse, in vivo
[19] = Day 31 post-infection, spleen, relative to control

CO[C@H]1C[C@@H]2CC[C@@H](C)[C@@](O)(O2)C(=O)C(=O)N2CCCC[C@H]2C(=O)O[C@H]([C@H](C)C[C@@H]2CC[C@@H](O)[C@H](OC)C2)CC(=O)[C@H](C)/C=C(\C)[C@@H](O)[C@@H](OC)C(=O)[C@H](C)C[C@H](C)/C=C/C=C/C=C/1C [rapamycin, (3S,6R,7E,9R,10R,12R,14S,15E,17E,19E,21S,23S,26R,27R,34aS)-9,10,12,13,14,21,22,23,24,25,26,27,32,33,34,34a-hexadecahydro-9,27-dihydroxy-3-[(1R)-2-[(1S,3R,4R)-4-hydroxy-3-methoxycyclohexyl]-1-methylethyl]-10,21-dimethoxy-6,8,12,14,20,26-hexamethyl-23,27-epoxy-3H-pyrido[2,1-c][1,4]-oxaazacyclohentriacontine-1,5,11,28,29(4H,6H,31H)-pentone]
blood concentration ([1]; 0.6 mg/kg (600 μg/kg) intraperitoneally daily): 40 to 100 ng/mL
blood concentration ([1]; low dose 0.075 mg/kg (75 μg/kg) daily): 5 to 20 ng/mL
Bcl-2 expression of virus-specific CD8^+ T cells in lymph node [2]: higher than control
cell surface markers of virus-specific CD8^+ T cells in lymph node [2]: no significant change
number of memory cells generated [2]: not affected
number of virus-specific CD8^+ T cells in the spleen [2]: did not reduce
number of virus-specific CD8^+ T cells with phenotype of highly functional memory cells [2]: significantly higher number
phenotype of GP33, GP276 and NP396 epitope-specific CD8^+ T cells in spleen [2]: high quality memory T cells (CD127^High, CD62L^High, KLRG-1^Low, CD27^High, Bcl-2^High)
number of virus-specific CD8^+ T cells in the spleen ([3]; 0.6 mg/kg daily from Day -1, Day 42 post-transfer, vs untreated): decreased
percentage of virus-specific CD8^+ T cells that divided more than twice (CFSE) ([3]; 0.6 mg/kg daily, Day 42 post-transfer, untreated 42.5%): 17.8%
absolute number of DbGP33 tetramer-positive P14 cells in spleen ([4]; Day 5 post-challenge, vs untreated): greater
recall responses of memory CD8^+ T cells differentiated with rapamycin ([4]; rapamycin 25 days, VVGP33 challenge Day 28 post-transfer): better
percentage of DbGP33 tetramer-positive P14 cells in the spleen ([4]; rapamycin for 25 days, VVgp33 challenge Day 28, Day 5 post-challenge, untreated 1.69%): 4.93%
incorporation of BrdU by antigen-specific CD8^+ T cells [5]: minimal incorporation
LCMV-specific CD8^+ T cell response [6]: enhanced
contraction of the T cell response [6]: minimal contraction
expression of CD127, CD62L, and Bcl-2 on memory CD8^+ T cells [6]: higher levels
frequency of KLRG-1^Low memory CD8^+ T cells [6]: higher frequency
number of GP33 epitope-specific CD8^+ T cells in PBMCs [6]: higher number
number of epitope-specific CD8^+ T cells (GP33, GP276, NP396, NP205, GP118) in spleen [6]: enhanced the number
numbers of antigen-specific CD8^+ T cells in lymphoid and non-lymphoid tissues [6]: Increased numbers
phenotype of virus-specific CD8^+ T cells [6]: CD127^High CD62L^High KLRG-1^Low Bcl-2^High phenotype
protective immunity (viral control) [7]: better
viral titer in the ovaries [7]: reduction in viral titer
number of virus-specific CD8^+ T cells (P14) in spleen (P14 cells; 0.6 mg/kg daily from Day 8 after VV infection, Day 31, vs control): similar
expression of CD27 and Bcl-2 on virus-specific CD8^+ T cells (P14 cells; [19]): higher
expression of KLRG-1 on virus-specific CD8^+ T cells (P14 cells; [19]): lower
CD127 and CD62L expression on virus-specific CD8^+ T cells (P14 cells; Day 31 post-infection, spleen, vs control): no significant difference
percentage of virus-specific CD8^+ T cells (DbGP33 tetramer) in PBMCs [8]: 2.49%
LCMV titer relative to untreated mice (LCMV): significantly increased
Bcl-2 expression in Day 8 effector CD8^+ T cells [9]: higher levels
death of effector CD8^+ T cells during contraction phase [9]: only minimal death
phenotype of memory CD8^+ T cells [9]: similar
proportion of CD127^High KLRG-1^Low cells among Day 8 effector CD8^+ T cells [9]: higher proportion
phenotype of antigen-specific CD8^+ T cells from spleen ([10]; 34 days post-immunization): markers of high quality memory T cells (CD127^High, CD62L^High, KLRG-1^Low, Bcl-2^High)
memory T cell numbers relative to control ([10]; 165 days after stopping the drug treatment): 10 fold
number of antigen-specific CD8^+ T cells maintained ([10]; PBMC and spleen (Day 34), vs control): higher number
expansion of GP33 epitope-specific CD8^+ T cells after VLP immunization ([10]; low dose rapamycin from Day -1, PBMC, vs control): expanded similarly
magnitude and quality of VLP-induced memory CD8^+ T cells ([10]; mouse, in vivo): enhanced both the magnitude and the quality
number of IFN-γ^+ CD4^+ T cells upon GP61 peptide stimulation [11]: higher number of IFN-γ^+ cells
recall responses of memory CD8^+ T cells generated with rapamycin (P14 memory T cells): superior
number of virus-specific (DbGP33 tetramer-positive) CD8^+ T cells in spleen ([12]; 0.075 mg/kg Day -1 to Day 34, Day 35 post-vaccination): significantly increased
phenotype of virus-specific CD8^+ T cells ([12]; 0.075 mg/kg Day -1 to Day 34, spleen Day 35): markers of high quality memory T cells (CD127^High, CD62L^High, KLRG-1^Low, Bcl-2^High)
effect of rapamycin treatment on phenotype / memory differentiation of FKBP12 knockdown P14 cells [13]: diminished; also recorded: almost disappeared
expression of memory markers (CD127, CD62L, Bcl2) on FKBP12 knockdown P14 cells under rapamycin [13]: did not show increased expression
T cell contraction [14]: slower
number of memory CD8^+ T cells maintained [14]: higher number
expression of CD127 and CD62L on LCMV-specific CD8^+ T cells [15]: enhanced expression
percentage of virus-specific CD8^+ T cells in PBMCs [15]: greater
recall responses [15]: enhanced
percentage of P14 memory cells that divided more than twice in spleen (P14 memory cells; 30 days post-transfer, control 36.8%): 46.1%
percentage of divided memory T cells in PBMC (P14 memory cells; memory cells from rapamycin-treated mice (Example 1), up to 30 days post-transfer): increased
homeostatic proliferation of memory CD8^+ T cells generated with rapamycin (P14 memory cells; rapamycin Day -1 to Day 33, 30 days post transfer, vs memory cells of untreated mice): superior
Blood levels of rapamycin [16]: 5 to 15 ng/mL
CD62L re-expression on transferred virus-specific CD8^+ T cells ([17]; 0.6 mg/kg daily after transfer, blood/PBMC, vs control mice): quickly re-expressed CD62L; also recorded: re-expressed CD62L much faster
absolute number of CD62L^High virus-specific CD8^+ T cells in spleen ([17]; 0.6 mg/kg daily, Day 26 post-transfer, vs untreated): greater
cell division during CD62L re-expression (CFSE) ([17]; effector to memory transition phase after transfer): no or minimal cell division; also recorded: no cell division

FKBP12 shRNA (guide GCCAAACTGATAATCTCCTCA)
Expression of FKBP12 protein (FKBP12): significantly reduced

raptor shRNA (guide GCCCGAGTCTGTGAATGTAAT)
Expression of raptor protein (raptor): significantly reduced
expression of phenotypic markers on antigen-specific T cells [18]: identical to what was observed upon knockdown of mTOR
virus-specific memory T cell phenotype in spleen [18]: high quality memory T cell phenotype (CD127^High, CD62L^high KLRG-1^Low)
